Measured values taken from ChEMBL document CHEMBL5576149, “Discovery of Potent STT3A/B Inhibitors and Assessment of Their Multipathogen Antiviral Potential and Safety” (J Med Chem, 2024).
≈ marks a conversion by molar mass, not a printed value.

Assays:
[1] = Inhibition of STT3A/STT3B mediated N-linked glycosylation in human H1-HeLa cells stably transduced with ERluc by measuring effective concentration of inhibition incubated for 18 hrs by One-Glo luciferase reporter assay; assay type: cell-based
[2] = Unbound clearance in rat liver microsomes at 0.5 uM incubated upto 45 mins; assay type: ADME, Microsome; settings: 0.75 h
[3] = Cytotoxicity against human Hepatocyte cultured as 3D spheroids incubated for 14 days by CellTiter-Glo luminescence assay; assay type: toxicity, cell-based; settings: hepatocytes cultured as 3D spheroids
[4] = Chromatographic hydrophobicity index, logD of the compound at pH 7.4; assay type: physicochemical; settings: buffer
[5] = Unbound clearance in human liver microsomes at 0.5 uM incubated upto 45 mins; assay type: ADME, Microsome; settings: 0.75 h
[6] = test system: Influenza A virus; assay: Antiviral activity against influenza A virus H1N1 A/Puerto Rico/8/1934 infected in MDCK cells assessed as reduction in viral replication measured after 3 hrs of post-infection by RT-qPCR analysis relative to control; assay type: functional; design: scale not given: the % may be the effect or the level left
[7] = Cytotoxicity against human MRC5 cells by luminescence-based cell viability assay; assay type: toxicity
[8] = test system: A549; assay: Cytotoxicity against human A549 cells; assay type: functional
[9] = test system: Influenza A virus; assay: Antiviral activity against influenza A virus H1N1 A/Puerto Rico/8/1934 infected in MDCK cells assessed as reduction in viral replication measured after 30 hrs of post-infection by RT-qPCR analysis relative to control; assay type: functional; design: scale not given: the % may be the effect or the level left
[10] = test system: SARS-CoV-2; assay: Antiviral activity against SARS-CoV-2 infected in human A549 cells assessed as reduction in viral growth incubated for 24 hrs by Nano-Glo reagent based analysis; assay type: functional, organism-based; settings: Severe acute respiratory syndrome coronavirus 2, A549, 24 h
[11] = test system: Human coronavirus 229E; assay: Antiviral activity against Human coronavirus 229E infected in human MRC5 cells assessed as reduction in viral growth incubated for 68 hrs by CellTiter-Glo luminescence assay; assay type: functional, organism-based; settings: MRC5, 68 h
[12] = test system: A549; assay: Cytotoxicity against human A549 cells by fluorescent cell imaging assay; assay type: functional
[13] = test system: Human respirovirus 3; assay: Antiviral activity against Human parainfluenza virus 3 JS infected in human A549 cells assessed as reduction in viral proliferation incubated for 44 hrs by Hoechst dye based fluorescence analysis; assay type: functional, organism-based; settings: Human respirovirus 3, JS, A549, 44 h
[14] = test system: HepG2; assay: Selectivity ratio of apparent dissociation constant for binding affinity to STT3A in human HepG2 cells to apparent dissociation constant for binding affinity to STT3B in human HepG2 cells; assay type: cell-based
[15] = Solubility of compound in FaSSIF; assay type: ADME
[16] = Volume of distribution at steady state in CD1 mouse at 2 mg/kg,po or 1 mg/kg,iv administrated upto 60 mins by LC-MS/MS analysis; assay type: ADME, organism-based; settings: in vivo, 1 h
[17] = test system: Influenza A virus; assay: Antiviral activity against influenza A virus H1N1 A/Puerto Rico/8/1934 infected in MDCK cells assessed as reduction in viral proliferation incubated for 24 hrs by FFU assay; assay type: functional, organism-based; settings: H1N1 A/Puerto Rico/8/1934, MDCK
[18] = Unbound clearance in mouse liver microsomes at 0.5 uM incubated upto 45 mins; assay type: ADME, Microsome; settings: 0.75 h
[19] = MRT in CD1 mouse at 2 mg/kg,po or 1 mg/kg,iv administrated upto 60 mins by LC-MS/MS analysis; assay type: ADME, organism-based; settings: in vivo
[20] = Bioavailability in CD1 mouse at 2 mg/kg,po or 1 mg/kg,iv administrated upto 60 mins by LC-MS/MS analysis; assay type: ADME, organism-based; settings: in vivo
[21] = Unbound clearance in CD1 mouse at 2 mg/kg,po or 1 mg/kg,iv administrated upto 60 mins by LC-MS/MS analysis; assay type: ADME, organism-based; settings: in vivo, 1 h

O=C([C@H]1CCN1S(=O)(=O)c1ccc(N2CCC(F)(F)C2)c(-c2cc3ccccc3[nH]2)c1)N1CCOCC1
EC50 [1]: 615 nM | CL free [2]: 3480 mL/min/kg | IC50 at 14 days [3]: 2500 nM | chromatographic logD [4]: 5.3

CN(C)S(=O)(=O)c1ccc(N2CCCC2)c(-c2nc3ccccc3[nH]2)c1
EC50 [1]: 4420 nM

CN(C)S(=O)(=O)c1ccc(N2CCCC2)c(-c2cc3cc(F)ccc3[nH]2)c1
EC50 [1]: 172 nM

CN(C)S(=O)(=O)c1ccc(N2CCCC2)c(C(=O)Nc2ccccc2)c1
EC50 [1]: 5010 nM

CN(C)S(=O)(=O)c1ccc(N2CCC2)c(-c2cc3ccccc3[nH]2)c1
CL free [5]: 117 mL/min/kg | EC50 [1]: 31 nM | CL free [2]: 7395 mL/min/kg | chromatographic logD [4]: 6.5

Cc1ccc2cc(-c3cc(S(=O)(=O)N(C)CC(=O)N4CCOCC4)ccc3N3CCCC3)[nH]c2c1
Activity [6]: >90% | CC50 [7]: 44 nM | CC50 [8]: 13 nM | Activity [9]: 60% | EC50 [10]: 4 nM | EC50 [1]: 2 nM | EC50 [11]: 2 nM | CC50 [12]: 35 nM | EC50 [13]: 6 nM

Cc1ccc2cc(-c3cc(S(=O)(=O)N(C)CC(=O)NCCC4(CCNC(=O)O[C@@H]5CC/C=C/CCC5)N=N4)ccc3N3CCCC3)[nH]c2c1
EC50 [1]: 827 nM

Cc1ccc2cc(-c3cc(S(=O)(=O)N(C)CC(=O)N4CCOC[C@@H]4C)ccc3N3CCCC3)[nH]c2c1
Selectivity ratio [14]: 10 | CC50 [7]: 199 nM | EC50 [1]: 1 nM | EC50 [11]: 5 nM | CC50 [12]: 57 nM | EC50 [13]: 12 nM

CCS(=O)(=O)c1ccc(N2CC[C@H](O)C2)c(-c2cc3ccccc3[nH]2)c1
CC50 [7]: 4110 nM | CC50 [8]: 3800 nM | EC50 [10]: 116 nM | solubility [15]: 130 µg/mL (≈ 351 µM) | CL free [5]: < 19 mL/min/kg | Vdss [16]: 2.7 L/kg | EC50 [1]: 36 nM | EC50 [17]: 307 nM | CL free [18]: < 49 mL/min/kg | EC50 [11]: 58 nM | MRT [19]: 1.4 h | bioavailability [20]: 33% | CL free [21]: 706 mL/min/kg | chromatographic logD [4]: 4.3

CN(C)S(=O)(=O)c1ccc(N2CCCC2)c(C(=O)Nc2ccc(F)cc2)c1
EC50 [1]: 1390 nM

Cc1ccc2[nH]c(-c3cc(S(=O)(=O)N(C)C)ccc3N3CCCC3)cc2c1
EC50 [1]: 32 nM

CN(C)S(=O)(=O)c1ccc(N2CCCC2)c(-c2cc3ccncc3[nH]2)c1
EC50 [1]: 394 nM
